Measurements reported in ChEMBL document CHEMBL1132011, “The synthesis of ketomethylene pseudopeptide analogues of dipeptide aldehyde inhibitors of calpain” (Bioorg Med Chem Lett, 1999).
Non-standard residues stand in square brackets, D forms with d. Residues, ends and D or L forms follow the SMILES beside them. ξ: configuration not given here. *: point of attachment. ξF = NC(Cc1ccccc1)C(=O)O; Cbz = O=C(OCc1ccccc1)*

Molecular target: T1, Calpain-1 catalytic subunit (Gallus gallus, UniProt P00789)
T1 sequence (P00789 whole entry): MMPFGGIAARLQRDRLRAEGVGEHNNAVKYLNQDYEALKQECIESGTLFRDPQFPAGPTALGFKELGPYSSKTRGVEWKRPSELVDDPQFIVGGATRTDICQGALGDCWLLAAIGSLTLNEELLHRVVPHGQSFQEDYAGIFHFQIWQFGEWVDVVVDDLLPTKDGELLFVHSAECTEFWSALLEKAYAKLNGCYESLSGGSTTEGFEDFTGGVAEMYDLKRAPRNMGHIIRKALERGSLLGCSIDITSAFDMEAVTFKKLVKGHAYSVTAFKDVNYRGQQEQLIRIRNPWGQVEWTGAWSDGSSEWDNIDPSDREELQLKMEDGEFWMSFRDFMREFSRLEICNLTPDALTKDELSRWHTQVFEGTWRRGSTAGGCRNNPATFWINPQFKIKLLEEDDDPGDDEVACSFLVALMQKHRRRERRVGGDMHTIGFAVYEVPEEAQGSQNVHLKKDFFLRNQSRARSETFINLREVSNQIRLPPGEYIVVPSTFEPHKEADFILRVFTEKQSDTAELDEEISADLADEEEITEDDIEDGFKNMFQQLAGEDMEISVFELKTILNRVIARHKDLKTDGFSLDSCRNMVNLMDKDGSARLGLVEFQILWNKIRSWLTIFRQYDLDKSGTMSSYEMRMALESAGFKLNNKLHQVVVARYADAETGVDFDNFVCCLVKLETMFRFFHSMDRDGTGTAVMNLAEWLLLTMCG
Test: Inhibitory activity against chicken gizzard smooth muscle calpain

| SMILES | Ki [nM] |
| --- | --- |
| CC(C=O)CC(=O)[C@@H](NC(=O)OCc1ccccc1)C(C)C (stereo partly drawn) | 45000 |
| CC(C)[C@H](NC(=O)OCc1ccccc1)C(=O)C[C@H](C=O)Cc1ccccc1 | 2500 |
| CC(C)[C@H](NC(=O)OCc1ccccc1)C(=O)NC(C=O)Cc1ccccc1 (stereo partly drawn) (Cbz-Val-[ξF]-aldehyde) | 10 |
